Results taken from patent US20130052214A1, “IDENTIFICATION OF A PEPTIDE(S) THAT INDUCES AUTOIMMUNE ANTERIOR UVEITIS” (BOARD OF TRUSTEES OF THE UNIVERSITY OF ARKANSAS, priority 2011, published 2013).

Test system: Lewis rats
Test: Induction of experimental autoimmune anterior uveitis (EAAU) by hind footpad immunization with MAA-derived peptides in CFA
Type: in vivo, rat
Details: for severity of EAAU, clinical and histopathologic examination: 250 μg peptide in CFA compared with 75 μg bovine MAA in CFA, histology at day 17 and day 20 post-immunization; for induction of EAAU: single-dose hind footpad immunization, emulsified 1:1 in CFA, 250 μg peptide or 75 μg bovine MAA, examined daily day 7 to 30 post-immunization
Description: Peptides having the sequence of SEQ ID NO. 1 and SEQ ID NO. 2 were solubilized in sterile phosphate buffered saline (PBS) before use. Lewis rats were immunized separately with 100 μl of stable emulsion containing 250 μg of peptide SEQ ID NO. 1 (n=9 rats) or peptide SEQ ID NO. 2 (n=9 rats) emulsified (1:1) in complete Freund's adjuvant (CFA) using a single-dose induction protocol in the hind footpad to induce EAAU. Control animals (n=9 rats) received 75 μg of bovine melanin associated antigen (MAA) emulsified (1:1) in CFA. Animals in each group were examined daily between day 7 and 30, post-immunization, to determine the time of onset and progression of clinical disease in EAAU. Two animals from each group were sacrificed at day 17 and day 20 post-immunization and eyes were harvested for histological analysis to determine the severity of disease and degree of inflammation. Lewis rats injected with MAA peptide SEQ ID NO. 1 or MAA peptide SEQ ID NO. […] 1 (FIGS. 1A and 1D) and peptide SEQ ID NO. […] As shown in all of the Figs., the iris (I) and the ciliary body (CB) were infiltrated with inflammatory cells.

| Sequence | severity of EAAU, clinical and histopathologic examination | induction of EAAU |
| --- | --- | --- |
| GEPGNIGFPGPKGPSGDPGKAGEKG (listed as Bos taurus) [SEQ ID NO. 1, truncated peptide derived from Melanin Associated Antigen (MAA)] | less severe than that induced by bovine MAA | developed EAAU |
| HAGLAGARGAPGPDGNNGAQGPPGL (listed as Bos taurus) [SEQ ID NO. 2, truncated peptide derived from Melanin Associated Antigen (MAA)] | less severe than that induced by bovine MAA | developed EAAU |
